# According to US12060356B2, “7 (methylamino)pyrazolo[1,5-a]pyrimidine-3-carboxamide derivatives” (Eli Lilly and Company, priority 2018, dated 2024):
# How the values were obtained:
# [1] = target: T1, pseudokinase domain (JH2) of human TYK2 (Homo sapiens, UniProt P29597); test: TYK2-JH2 Tracer Binding Assay; details: His-tagged TYK2-JH2 0.200 nM, Tracer 2.00 nM, TR-FRET, 30 minutes at room temperature
# T1 construct: The pseudokinase domain (JH2) of human JAK; made in house
# Description: The pseudokinase domain (JH2) of human JAK (Janus family of cytoplasmic tyrosine kinases) family tyrosine kinase 2 (TYK2) (Genbank NP_003322) with an N-terminal His6 tag is expressed in baculovirus and purified by HisPur Ni-NTA affinity and Superdex 200 size-exclusion chromatography. The compound prepared in Preparation 17, a conjugate of Alexa Fluor 647 dye (Thermo Fisher Scientific) and a suitable TYK2 JH2 binder, is referred to herein as “the Tracer”. A 3 fold, 10 point serial dilution of compound, Example 1 and Example 2, are prepared in 100% DMSO and 50 nL/well transferred to a Proxiplate-384F white plate (PerkinElmer 6008280) using acoustic liquid handling. Control wells used to determine percent inhibition contained 100% DMSO (50 nL) and either assay buffer containing the Tracer (2.00 nM final concentration) (min, low FRET) or diluted TYK2-JH2 enzyme (0.200 nM final concentration) and the Tracer (2.00 nM final concentration) (max, high FRET). […] After 30 minutes, the plate is counted on a PerkinElmer Envision with the following settings: Excitation (340 nm), Tracer Emission (665 nm) and LanthaScreen Eu-anti-His Antibody Emission (615 nm). The ratio of Tracer Emission (665 nm) over LanthaScreen Eu-anti-His Antibody Emission (615 nm) is determined.
# [2] = system: IFNα signaling through pSTAT1 in TF1 cells; test: Inhibition of IFNα Signaling Through pSTAT1 in TF1 Cells; type: cell-based; details: Homo sapiens, TF-1, 1 hr preincubation, 10 ng/mL IFNα2 for 20 minutes, p-Stat1 (Tyr701) AlphaLISA, GeoMetric mean (SEM, n)
# Method: TF1 cells (ATCC, CL-2003) are grown in RPMI 1640 (GIBCO) supplemented with 10% dialyzed FBS, 0.1 mg/mL Ampicillin and 2 ng/mL granulocyte macrophage colony stimulating factor. TF1 cells (100 K per well) are seeded in a 96-well poly-D-lysine coated plates in serum-free DMEM and incubated overnight at 37° C. under 5% CO2. Example 1 is serially diluted in DMSO, added to the cells, and incubated at 37° C. for 1 hr. Cells are then stimulated with 10 ng/mL IFNα2 at 37° C. for 20 minutes. After removing the medium, the cells are lysed in buffer containing Halt protease and phosphatase inhibitor cocktail (Thermo Scientific #78441) at room temperature for 30 minutes. The amount of p-Stat1 (Tyr701) is quantified as light emission at 615 nm using the AlphaLISA SureFire Ultra p-Stat1 (Tyr701) assay kit (Perkin Elmer #ALSU-PST1-A50K) following the vendor's recommended protocol. Percent inhibition at each inhibitor concentration is calculated and fit to the four parameter nonlinear logistic equation using Genedata Screener® to give an IC50 for the compound of Example 1 of 0.007 μM (0.002 μM, n=4) and for the compound of Example 2 of 0.100 μM (0.014 μM, n=4) expressed as GeoMetric means with the standard error of the mean (SEM).
# [3] = system: IL-23 signaling (STAT3 phosphorylation) in Kit225 cells; test: IL23 pSTAT3 AlphaLISA Assay; type: cell-based; details: 1 hour preincubation, IL23 25 ng/mL for 30 minutes, GeoMetric mean (SEM, n), read-out: relative IC50
# Method: IL2-dependent Kit225 cells (University of Texas MD Anderson Cancer Center) expressing endogenous IL23 receptors are stably transduced with the Lenti STAT3 Reporter linked to firefly luciferase (SABiosciences CLS-6028L). These cells are used to monitor TYK2 activity by quantifying gene expression caused by STAT3 phosporylation following induction by IL23 in the presence of IL2 using AlphaLISA technology (TGR Biosciences ALSU-TST3-A50K). The cells are grown in RPMI 1640 (Gibco 22400) supplemented with 10% FBS (Invitrogen 10082), 1× Pen/Strep (Gibco 15140-122), 200 ng/ml Puromycin (Sigma P9620), and fresh 10 ng/ml recombinant human IL2 (R&D Systems 202-IL-50).
# For assay preparation, cells are dispensed into Biocoat black poly-d-lysine coated clear bottom 384-well plates (Becton Dickinson Bio-Coat 35-4640) in DMEM (Sigma D5796) at 300,000 cells/well and allowed to incubate overnight at 37° C. Compounds solubilized in DMSO are serially diluted 1:3 to produce a 10-point concentration response curve (final DMSO=0.1%). Cells are pre-incubated with Example 1 for 1 hour at 37° C., then stimulated with IL23 (25 ng/mL final) for 30 minutes. […] The AlphaLISA reaction is performed following the vendor's recommended protocol, and the […] are measured using an Envision plate reader (Perkin Elmer).
# T1 sequence (P29597 589-875 limits assumed): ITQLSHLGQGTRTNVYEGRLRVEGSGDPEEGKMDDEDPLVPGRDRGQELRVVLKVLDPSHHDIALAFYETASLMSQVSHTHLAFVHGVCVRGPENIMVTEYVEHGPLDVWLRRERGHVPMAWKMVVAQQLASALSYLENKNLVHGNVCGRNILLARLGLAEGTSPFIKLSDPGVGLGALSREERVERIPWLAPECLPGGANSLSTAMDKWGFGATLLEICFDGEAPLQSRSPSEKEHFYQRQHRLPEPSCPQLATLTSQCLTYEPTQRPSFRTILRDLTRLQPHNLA
IC50 [1] [nM],IC50 [2] [nM],IC50 [3] [nM],SMILES
< 0.254,100,66,"CNc1cc(Nc2cccc(C)n2)nc2c(C(=O)N[C@@H]3CCN(C)C3=O)cnn12 [Example 2, 7-(Methylamino)-N-[(3R)-1-methyl-2-oxo-pyrrolidin-3-yl]-5-[(6-methyl-2-pyridyl)amino]pyrazolo[1,5-a]pyrimidine-3-carboxamide]"
< 0.254,7,7,"CNc1cc(Nc2cccc3c2OCCC3)nc2c(C(=O)N[C@@H]3CCN(C)C3=O)cnn12 [Example 1, 5-(Chroman-8-ylamino)-7-(methylamino)-N-[(3R)-1-methyl-2-oxo-pyrrolidin-3-yl]pyrazolo[1,5-a]pyrimidine-3-carboxamide]"
